Assay results: patent publication US5514694A, “Peptidyl ketoamides” (Georgia Tech Research Corp, priority 1993, dated 1996)
pIC50, pKi: −log10 of the molar value. Where two headings read alike, the source gives them in different places.

Legend:
Type in all cases: biochemical
[1] = target: T1, Calpain I from human erythrocytes (Homo sapiens, UniProt P07384); assay: Calpain I inhibition, Suc-Leu-Tyr-AMC hydrolysis (KI); details: read-out: KI Cal I
T1 construct: Calpain I was purified from human erythrocytes; from tissue; host or cells: human erythrocytes
T1 sequence (P07384 1-714): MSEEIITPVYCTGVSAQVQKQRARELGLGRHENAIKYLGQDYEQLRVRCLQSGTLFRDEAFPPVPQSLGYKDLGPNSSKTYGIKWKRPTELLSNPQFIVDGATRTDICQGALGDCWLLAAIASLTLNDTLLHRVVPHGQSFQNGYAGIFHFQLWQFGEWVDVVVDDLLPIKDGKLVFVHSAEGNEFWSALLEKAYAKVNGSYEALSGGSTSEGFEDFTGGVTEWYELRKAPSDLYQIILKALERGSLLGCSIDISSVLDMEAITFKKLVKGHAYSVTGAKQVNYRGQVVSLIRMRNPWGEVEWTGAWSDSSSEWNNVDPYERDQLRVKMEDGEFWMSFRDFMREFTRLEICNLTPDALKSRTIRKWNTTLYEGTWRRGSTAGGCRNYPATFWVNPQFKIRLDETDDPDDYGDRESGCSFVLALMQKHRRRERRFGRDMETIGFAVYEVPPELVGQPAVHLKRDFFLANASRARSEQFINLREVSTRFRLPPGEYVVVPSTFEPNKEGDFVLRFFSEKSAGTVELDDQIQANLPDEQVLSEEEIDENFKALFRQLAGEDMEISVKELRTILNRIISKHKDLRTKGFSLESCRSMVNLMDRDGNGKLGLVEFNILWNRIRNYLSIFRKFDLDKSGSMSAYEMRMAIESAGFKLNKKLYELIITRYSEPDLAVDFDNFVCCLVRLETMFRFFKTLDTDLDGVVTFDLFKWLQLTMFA
T1 sequence (P04632 1-268 partner): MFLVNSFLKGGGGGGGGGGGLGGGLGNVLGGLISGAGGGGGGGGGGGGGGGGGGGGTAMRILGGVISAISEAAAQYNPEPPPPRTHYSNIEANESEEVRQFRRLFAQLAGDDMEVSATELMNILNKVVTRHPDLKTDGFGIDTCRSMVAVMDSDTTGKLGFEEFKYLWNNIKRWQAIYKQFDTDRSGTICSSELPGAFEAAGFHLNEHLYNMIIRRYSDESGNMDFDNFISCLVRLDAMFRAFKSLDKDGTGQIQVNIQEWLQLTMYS
Procedure, shortened: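 Human erythrocyte calpain I and rabbit calpain II were followed by fluorimetric AMC release from Suc-Leu-Tyr-AMC at pH 8.0 (25 mM Tris, 10 mM CaCl2). Cathepsin B was run at pH 5.2 with 0.5 mM DTT on a p-nitroanilide substrate, or with Z-Arg-Arg-AFC (ex 400/em 505 nm). Enzyme was added last, and KI was taken from Dixon or Lineweaver-Burk analysis.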

[2] = target: T2, human leukocyte elastase (HLE) (Homo sapiens, UniProt P08246); assay: HLE inhibition, MeO-Suc-Ala-Ala-Pro-Val-NA hydrolysis; details: Table 4, Z-Leu--AA--CONH-R
T2 sequence (P08246 30-267): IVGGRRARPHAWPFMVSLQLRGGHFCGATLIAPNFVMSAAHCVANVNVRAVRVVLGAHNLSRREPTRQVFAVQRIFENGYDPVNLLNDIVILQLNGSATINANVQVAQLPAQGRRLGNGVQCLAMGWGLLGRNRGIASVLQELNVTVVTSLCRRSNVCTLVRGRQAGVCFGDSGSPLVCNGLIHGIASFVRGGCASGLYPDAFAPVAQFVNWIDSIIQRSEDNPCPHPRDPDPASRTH
Experimental: (§1) Peptide α-ketoamides were assayed as reversible enzyme inhibitors. Various concentrations of inhibitors in Me2 SO were added to the assay mixture which contained buffer and substrate. The reaction was started by the addition of the enzyme and the hydrolysis rates were followed spectrophotometrically or fluorimetrically.
(§2) A 0.1M Hepes, 0.5M NaCl, pH 7.5 buffer was utilized for human leukocyte elastase (HLE), porcine pancreatic elastase (PPE), chymotrypsin and cathepsin G. A 0.1 Hepes, 0.01 M CaCl2, pH 7.5 buffer was utilized for trypsin, plasmin, and coagulation enzymes. A 50 mM Tris.HCl, 2 mM EDTA, 5 mM cysteine, pH 7.5 was used as a buffer for papain. A 88 mM KH2 PO4, 12 mM Na2 HPO4, 1.33 mM EDTA, 2.7 mM cysteine, pH 6.0 solution was used as a buffer for cathepsin B. A 20 mM Hepes, 10 mM CaCl2, 10 mM mercatoethanol, pH 7.2 buffer was utilized for calpain I and calpain II.
(§3) HLE and PPE were assayed with MeO-Suc-Ala-Ala-Pro-Val-NA and Suc-Ala-Ala-Ala-NA, respectively Nakajima et al., J. Biol. Chem. 254, 4027-4032 (1979); incorporated herein by reference!. Human leukocyte cathepsin G and chymotrypsin Aα were assayed with Suc-Val-Pro-Phe-NA Tanaka et al., Biochemistry 24, 2040-2047 (1985); incorporated herein by reference!. The hydrolysis of peptide 4-nitroanilides was measured at 410 nm ε410 =8800 M^-1 cm^-1; Erlanger et al., Arch. Biochem. Biophys. 95, pp 271-278 (1961); incorporated herein by reference!. Trypsin, thrombin, human plasma kallikrein, porcine pancreatic kallikrein, human factor XIa, and human plasmin were assayed with Z-Arg-SBzl or Z-Gly-Arg-SBu-i McRae et al., Biochemistry 20, 7196-7206 (1981); incorporated herein by reference!. All peptide thioester hydrolysis rates were measured with assay mixtures containing 4,4'-dithiodipyridine ε324 =19800 M^-1 cm^-1; Grasetti & Murray, Arch. Biochem. Biophys. 119, 41-49 (1967); incorporated herein by reference!.

cathepsin B = target: T3, cathepsin B (Homo sapiens, UniProt P07858); assay: Cathepsin B inhibition (KI); details: read-out: KI Cat B
T3 construct: purchased Sigma
Experimental: (§4) HEPES, heparin, and A23187 were obtained from Calbiochem. Suc-Leu-Tyr-AMC and chromogenic substrates were obtained from Sigma. Calpain I was purified from human erythrocytes according to the method of Kitahara (Kitahara et al., J. Biochem. 95, 1759-1766) omitting the Blue-Sepharose step. Calpain II from rabbit muscle and cathepsin B were purchased from Sigma. Papain was purchased from Calbiochem.
as §1
(§5) Calpain I from human erythrocytes and calpain II from rabbit were assayed using Suc-Leu-Tyr-AMC Sasaki et al., J. Biol. Chem. 259, 12489-12494 (1984); incorporated herein by reference!, and the AMC (7-amino-4-methylcoumarin) release was followed fluorimetrically (excitation at 380 nm, and emmision at 460 nm). Calpains were assayed in 25 mM Tris pH=8.0, 10 mM CaC12. Fluorescence was followed using a Gilson FL-1A fluorometer or a Perkin-Elmer 203 Fluorescence spectrometer. Cathepsin B was assayed in 20 mM sodium acetate pH=5.2, 0.5 mM dithiothreitol using Bz-Phe-Val-Arg-p-nitroanilide as substrate. Alternately, cathepsin B was assayed with Z-Arg-Arg-AFC Barrett and Kirschke, Methods Enzymol. 80, 535-561 (1981); incorporated herein by reference!, and the AFC (7-amino-4-trifluoromethylcoumarin) release was followed fluorimetrically (excitation at 400 nm and emmision at 505 nm). Papain was assayed in 100 mM KPO4, 1 mM EDTA, 2.5 mM cysteine pH=6.0 using Bz-Arg-AMC or Bz-Arg-NA Kanaoka et al., Chem. Pharm. Bull. 25, 3126-3128 (1977); incorporated herein by reference! as a substrate. The AMC (7-amino-4-methylcoumarin) release was followed fluorimetrically (excitation at 380 nm, and emmision at 460 nm). Enzymatic hydrolysis rates were measured at various substrate and inhibitor concentrations, and KI values were determined by either Lineweaver-Burk plots or Dixon plots.
as §2

calpain II from rabbit = assay: Calpain II inhibition, Suc-Leu-Tyr-AMC hydrolysis (KI); details: for pKi: read-out: KI Cal II
Experimental: as §4, §1, §5, §2

[3] = target: T4, Human leukocyte cathepsin G (Homo sapiens, UniProt P08311); assay: Cathepsin G inhibition, Suc-Val-Pro-Phe-NA hydrolysis; details: Table 4, Z-Leu--AA--CONH-R
T4 sequence (P08311 21-255): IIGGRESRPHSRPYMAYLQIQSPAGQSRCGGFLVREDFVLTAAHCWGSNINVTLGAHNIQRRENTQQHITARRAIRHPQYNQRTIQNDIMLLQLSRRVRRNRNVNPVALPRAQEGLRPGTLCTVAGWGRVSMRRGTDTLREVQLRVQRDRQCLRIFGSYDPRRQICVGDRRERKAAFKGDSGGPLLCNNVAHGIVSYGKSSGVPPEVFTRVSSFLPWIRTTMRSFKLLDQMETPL
Experimental: as §1, §2, §3

[4] = Table 2, Z-Leu--AA--CONH--CH2 CH(OH)-R

| Compound | pKi ([1]; Table 1, Z-Leu--AA--CONHR) | pIC50 [2] | pKi (cathepsin B; Table 1, Z-Leu--AA--CONHR) | pKi (calpain II from rabbit; Table 1, Z-Leu--AA--CONHR) | pIC50 [3] | other results |
| --- | --- | --- | --- | --- | --- | --- |
| CCC(NC(=O)C(CC(C)C)NC(=O)OCc1ccccc1)C(=O)C(=O)NCCCN1CCOCC1 (stereo not drawn) [Z-Leu-Abu-CONH-(CH2)3 -4-morpholinyl, Z-Leu-Abu-CONH--(CH2)3 -4-Morpholinyl] | 6.85 | < 3.66 | 5.16 | 7.39 | – | – |
| CC[C@H](NC(=O)[C@H](CC(C)C)NC(=O)OCc1ccccc1)C(=O)C(=O)NCC(O)c1ccc(OCc2ccccc2)cc1 (stereo partly drawn) [Z-Leu-Abu-CONH--CH2 CH(OH)C6 H4 (4-OCH2 Ph)] | – | – | – | – | < 3.99 | pKi [1, 4]: 7.10 |
| CCCCCCCNC(=O)C(=O)C(CC)NC(=O)C(CC(C)C)NC(=O)OCc1ccccc1 (stereo not drawn) [Z-Leu-Abu-CONH-C7 H15] | – | 4.28 | – | – | < 3.94 | – |
| CCCCCCCCNC(=O)C(=O)C(CC)NC(=O)C(CC(C)C)NC(=O)OCc1ccccc1 (stereo not drawn) [Z-Leu-Abu-CONH-C8 H17] | – | 4.35 | – | – | < 3.66 | – |
| CCCCCCCCCNC(=O)C(=O)C(CC)NC(=O)C(CC(C)C)NC(=O)OCc1ccccc1 (stereo not drawn) [Z-Leu-Abu-CONH-C9 H19] | – | 4.11 | – | – | 3.82 | – |
| CCC(NC(=O)C(CC(C)C)NC(=O)OCc1ccccc1)C(=O)C(=O)NCc1ccco1 (stereo not drawn) [Z-Leu-Abu-CONH-CH2 -2-furyl, Z-Leu-Abu-CONH--CH2 -2-Furyl] | 6.10 | 4.42 | 5.22 | 7.48 | – | – |
| CCC(NC(=O)C(CC(C)C)NC(=O)OCc1ccccc1)C(=O)C(=O)NCC(O)c1ccccc1 (stereo not drawn) [Z-Leu-Abu-CONH-CH2 CH(OH)-Ph, Z-Leu-Abu-CONH--CH2 CH(OH)Ph] | – | – | – | – | – | pKi [1, 4]: 5.96; pKi (cathepsin B; [4]): 6.43; inhibition of calpain II, in words (calpain II from rabbit): best inhibitor for calpain II; pKi (calpain II from rabbit; [4]): 7.82 |
| CCC(NC(=O)C(CC(C)C)NC(=O)OCc1ccccc1)C(=O)C(N)=O (stereo not drawn) [Z-Leu-Abu-CONH-H] | – | < 3.92 | – | – | < 3.66 | – |
| CCC(NC(=O)C(CC(C)C)NC(=O)OCc1ccccc1)C(=O)C(=O)NCC(C)C (stereo not drawn) [Z-Leu-Abu-CONH-i-Bu] | – | 4.11 | – | – | 3.87 | – |
| CCCCNC(=O)C(=O)C(CC)NC(=O)C(CC(C)C)NC(=O)OCc1ccccc1 (stereo not drawn) [Z-Leu-Abu-CONH-n-Bu] | – | 4.20 | – | – | 3.83 | – |
| CCCNC(=O)C(=O)C(CC)NC(=O)C(CC(C)C)NC(=O)OCc1ccccc1 (stereo not drawn) [Z-Leu-Abu-CONH-n-Pr] | – | < 3.92 | – | – | < 3.66 | – |
| CCCC(NC(=O)C(CC(C)C)NC(=O)OCc1ccccc1)C(=O)C(=O)NCCCN1CCOCC1 (stereo not drawn) [Z-Leu-Nva-CONH-(CH2)3 -4-morpholinyl, Z-Leu-Nva-CONH--(CH2)3 -4-Morpholinyl] | 6.60 | – | 5.38 | 7.00 | – | – |
| CC(C)CC(NC(=O)OCc1ccccc1)C(=O)NC(Cc1ccccc1)C(=O)C(=O)NCCc1ccccc1 (stereo not drawn) [Z-Leu-Phe-CONH-(CH2)2 Ph] | – | 4.62 | – | – | 3.95 | – |
| CC(C)CC(NC(=O)OCc1ccccc1)C(=O)NC(Cc1ccccc1)C(=O)C(=O)NCC(O)c1ccc(OCc2ccccc2)cc1 (stereo not drawn) [Z-Leu-Phe-CONH--CH2 CH(OH)C6 H4 (4-OCH2 Ph)] | – | 4.40 | – | – | 4.24 | – |
| CC(C)CC(NC(=O)OCc1ccccc1)C(=O)NC(Cc1ccccc1)C(=O)C(=O)NCc1ccc2ccccc2n1 (stereo not drawn) [Z-Leu-Phe-CONH-CH2 -2-quinolinyl, Z-Leu-Phe-CONH--CH2 -2-Quinolinyl] | 6.96 | – | 6.47 | 7.64 | – | – |
| Z-Leu-Abu-CONH--(CH2)2 C6 H4 (3-OCH3) [Z-Leu-Abu-CONH-(CH2)2 C6 H4 (3-OCH3)] | 6.96 | – | 6.51 | 7.07 | – | – |
